This is an account of results in patent US20240317744A1, “Bicyclic Ureas As Kinase Inhibitors” (Incyte Corporation, priority 2023, published 2024).

Assay [1] has as its target catalytic domain (JH1, amino acids 808-1132) of human JAK2 (Homo sapiens, UniProt O60674). The assay can be described thus: JAK2 HTRF Enzyme Activity Assay. It counts as biochemical. Conditions: ATP 30 µM, 60 minutes at 25° C.; read-out: V617F ENZ 30 UM. (In general: TR-FRET usually uses a lanthanide donor and a delayed reading to cut background.)
Assay [2] concerns the target T1, pseudo-kinase domain (JH2, amino-acids 536-812) of human V617F mutant JAK2 (Homo sapiens, UniProt O60674, F794H/V617F/W659A/W777A).
T1 construct: pseudo-kinase domain (JH2, amino-acids 536-812 with 3 surface mutations W659A, W777A, F794H); His (C); purchased BPS Bioscience 79498; host or cells: baculovirus expression system
The assay can be described thus: JAK2 LanthaScreen JH2-V617F Binding Assay. Conditions: JAK2 JH2-V617F 0.26 nM, 50 nM tracer, 1 hour at 25° C.; read-out: JH2 BIND V617F. In outline: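 Serially diluted compounds are mixed with 0.26 nM protein, 50 nM fluorescent JAK2-JH2 tracer and 0.25 nM terbium-labelled streptavidin, then incubated 1 h at 25° C. LanthaScreen signal is read, and IC50 is fitted.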

In assay [3] the target is T2, pseudo-kinase domain (JH2, amino-acids 536-812) of human Wild Type JAK2 (Homo sapiens, UniProt O60674, F794H/W659A/W777A).
T2 construct: pseudo-kinase domain (JH2, amino-acids 536-812 with 3 surface mutations W659A, W777A, F794H); His (C); purchased BPS Bioscience 79463; host or cells: baculovirus expression system
T2 sequence (O60674 536-812 W659A/W777A/F794H): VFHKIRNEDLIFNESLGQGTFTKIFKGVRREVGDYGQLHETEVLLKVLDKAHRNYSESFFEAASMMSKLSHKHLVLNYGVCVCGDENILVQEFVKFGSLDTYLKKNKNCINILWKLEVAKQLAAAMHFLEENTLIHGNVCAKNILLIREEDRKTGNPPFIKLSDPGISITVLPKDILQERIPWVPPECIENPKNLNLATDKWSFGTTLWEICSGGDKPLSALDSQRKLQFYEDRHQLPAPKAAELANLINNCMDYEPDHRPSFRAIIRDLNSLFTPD
The assay can be described thus: JAK2 LanthaScreen JH2-WT Binding Assay. The note with it: JAK2 JH2-WT 0.145 nM, 50 nM tracer, 1 hour at 25° C.; read-out: JH2 BIND WT. A digest of the protocol: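 IC50 values derive from four-parameter fits of LanthaScreen signal, measuring displacement of 50 nM fluorescent tracer from 0.145 nM biotinylated, baculovirus-expressed JH2 (536-812) detected by 0.25 nM streptavidin-Tb. Incubation lasts 1 hour at 25° C, pH 7.5.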

Assay [4] has as its target T3, catalytic domain (JH1, amino acids 826-1132) of human JAK2 (Homo sapiens, UniProt O60674).
T3 construct: catalytic domain (JH1, amino acids 826-1132) of human JAK2; FLAG (N); biotin (biotinylated); purchased Carna Biosciences 08-445-20N; host or cells: baculovirus expression system
In words: JAK2 LanthaScreen JH1 Binding Assay. Conditions: JAK2 JH1 1.5 nM, 50 nM tracer, 2 hours at 25° C.; read-out: JH1 BIND. A digest of the protocol: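 TR-FRET tracer-displacement format: compound IC50 from four-parameter curves after 2 h at 25° C. Reaction held 1.5 nM biotinylated, FLAG-tagged JH1 (aa 826-1132), 50 nM tracer, 0.5 nM Streptavidin-Tb, pH 7.5 Tris buffer; 2 mM ATP set nonspecific background.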

Where only a bound is given, the exact number is not on record here.

T1 sequence (O60674 536-812 V617F/W659A/W777A/F794H): as the sequence (O60674 536-812 W659A/W777A/F794H) above, with V82F counted along it
T3 sequence (O60674 826-1132): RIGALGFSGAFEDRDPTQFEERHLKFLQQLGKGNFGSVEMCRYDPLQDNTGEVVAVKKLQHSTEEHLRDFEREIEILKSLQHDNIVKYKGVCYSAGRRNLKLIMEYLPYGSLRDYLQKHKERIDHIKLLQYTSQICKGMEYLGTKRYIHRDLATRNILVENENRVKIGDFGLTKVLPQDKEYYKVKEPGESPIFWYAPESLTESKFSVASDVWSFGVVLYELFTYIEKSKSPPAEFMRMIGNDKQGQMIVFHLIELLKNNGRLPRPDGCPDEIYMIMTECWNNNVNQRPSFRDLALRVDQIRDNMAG
Sequence of catalytic domain (JH1, amino acids 808-1132) of human JAK2 (O60674 808-1132 limits assumed): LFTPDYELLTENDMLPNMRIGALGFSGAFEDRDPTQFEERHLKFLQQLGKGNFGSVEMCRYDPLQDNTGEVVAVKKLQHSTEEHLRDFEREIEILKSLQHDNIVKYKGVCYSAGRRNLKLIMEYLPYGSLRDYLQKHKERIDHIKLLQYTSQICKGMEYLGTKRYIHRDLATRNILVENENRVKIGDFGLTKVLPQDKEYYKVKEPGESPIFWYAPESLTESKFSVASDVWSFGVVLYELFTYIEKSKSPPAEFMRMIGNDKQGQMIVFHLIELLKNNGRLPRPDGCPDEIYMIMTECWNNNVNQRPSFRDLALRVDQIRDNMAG

`[2H]C([2H])([2H])n1c(=O)n([C@@H]2CC[C@@H](NC(=O)OC)C2)c2cc(Nc3cc(CN4CC[C@H](F)C4)cc(-c4ccc5c(c4)OCCO5)n3)ncc21` [Example 70, Methyl ((1R,3R)-3-(6-((6-(2,3-dihydrobenzo[b][1,4]dioxin-6-yl)-4-(((S)-3-fluoropyrrolidin-1-yl)methyl)pyridin-2-yl)amino)-3-(methyl-d3)-2-oxo-2,3-dihydro-1H-imidazo[4,5-c]pyridin-1-yl)cyclopentyl)carbamate]: the IC50 is over 1000 nM in assay [1], at most 10 nM in assay [2], at most 10 nM in assay [3] and over 1000 nM in assay [4].
Take `COC(=O)N[C@@H]1CC[C@@H](n2c(=O)n(C)c3cnc(Nc4ccc(F)c(-c5ccc(CC#N)cc5)n4)cc32)C1` [Example 71, Methyl ((1R,3R)-3-(6-((6-(4-(cyanomethyl)phenyl)-5-fluoropyridin-2-yl)amino)-3-methyl-2-oxo-2,3-dihydro-1H-imidazo[4,5-c]pyridin-1-yl)cyclopentyl)carbamate]: the IC50 was over 1000 nM in assay [1], at most 10 nM in assay [2], at most 10 nM in assay [3] and over 1000 nM in assay [4].
On to `COC(=O)N[C@@H]1CC[C@@H](n2c(=O)n(C)c3cnc(Nc4ccc(F)c(-c5ccc(C6CC6)cc5)n4)cc32)C1` [Example 72, Methyl ((1R,3R)-3-(6-((6-(4-cyclopropylphenyl)-5-fluoropyridin-2-yl)amino)-3-methyl-2-oxo-2,3-dihydro-1H-imidazo[4,5-c]pyridin-1-yl)cyclopentyl)carbamate], for which the IC50 in assay [1] was over 1000 nM; in assay [2] it was 10 to 100 nM; in assay [3], at most 10 nM; in assay [4], over 1000 nM.
Turning to `COC(=O)N[C@@H]1CC[C@@H](n2c(=O)n(C)c3cnc(Nc4ccc(F)c(-c5ccc(OC(F)(F)F)cc5)n4)cc32)C1` [Example 73, Methyl ((1R,3R)-3-(6-((5-fluoro-6-(4-(trifluoromethoxy)phenyl)pyridin-2-yl)amino)-3-methyl-2-oxo-2,3-dihydro-1H-imidazo[4,5-c]pyridin-1-yl)cyclopentyl)carbamate], the IC50 in assay [1] is over 1000 nM; in assay [2], 10 to 100 nM; in assay [3] it was 10 to 100 nM; in assay [4], over 1000 nM.
For the compound `[2H]C([2H])([2H])n1c(=O)n([C@@H]2CC[C@@H](NC(=O)OC)C2)c2cc(Nc3cc(CN4CCOCC4)cc(-c4ccc5c(c4)OCCO5)n3)ncc21` [Example 74, Methyl ((1R,3R)-3-(6-((6-(2,3-dihydrobenzo[b][1,4]dioxin-6-yl)-4-(morpholinomethyl)pyridin-2-yl)amino)-3-(methyl-d3)-2-oxo-2,3-dihydro-1H-imidazo[4,5-c]pyridin-1-yl)cyclopentyl)carbamate], the IC50 in assay [1] is over 1000 nM; in assay [2], at most 10 nM; in assay [3] it was at most 10 nM; in assay [4] it was over 1000 nM.
`[2H]C([2H])([2H])n1c(=O)n([C@@H]2CC[C@@H](NC(=O)OC)C2)c2cc(Nc3ccnc(-c4ccnc(OC)c4)n3)ncc21` [Example 75, Methyl ((1R,3R)-3-(6-((2-(2-methoxypyridin-4-yl)pyrimidin-4-yl)amino)-3-(methyl-d3)-2-oxo-2,3-dihydro-1H-imidazo[4,5-c]pyridin-1-yl)cyclopentyl)carbamate]: the IC50 is over 1000 nM in assay [1], at most 10 nM in assay [2], at most 10 nM in assay [3] and over 1000 nM in assay [4].
Regarding `[2H]C([2H])([2H])n1c(=O)n([C@@H]2CC[C@@H](NC(=O)OC)C2)c2cc(Nc3cc(C(=O)N4CCN5CCCCC5C4)cc(-c4ccc5c(c4)OCCO5)n3)ncc21` (stereo partly drawn) [Example 76, Methyl ((1R,3R)-3-(6-((6-(2,3-dihydrobenzo[b][1,4]dioxin-6-yl)-4-(octahydro-2H-pyrido[1,2-a]pyrazine-2-carbonyl)pyridin-2-yl)amino)-3-(methyl-d3)-2-oxo-2,3-dihydro-1H-imidazo[4,5-c]pyridin-1-yl)cyclopentyl)carbamate], the IC50 in assay [1] is over 1000 nM; in assay [2] it was at most 10 nM; in assay [3], at most 10 nM; in assay [4], over 1000 nM.
Consider `COC(=O)N[C@@H]1CC[C@@H](n2c(=O)n(C)c3cnc(Nc4ccnc(N5CCC6(CC6)C5)n4)cc32)C1` [Example 77, Methyl ((1R,3R)-3-(6-((2-(5-azaspiro[2.4]heptan-5-yl)pyrimidin-4-yl)amino)-3-methyl-2-oxo-2,3-dihydro-1H-imidazo[4,5-c]pyridin-1-yl)cyclopentyl)carbamate], for which the IC50 in assay [1] was over 1000 nM; in assay [2], at most 10 nM; in assay [3], at most 10 nM; in assay [4], over 1000 nM.
Take `COC(=O)N[C@@H]1CC[C@@H](n2c(=O)n(C)c3cnc(Nc4ccnc(N5CCC(F)(F)C5)n4)cc32)C1` [Example 78, Methyl ((1R,3R)-3-(6-((2-(3,3-difluoropyrrolidin-1-yl)pyrimidin-4-yl)amino)-3-methyl-2-oxo-2,3-dihydro-1H-imidazo[4,5-c]pyridin-1-yl)cyclopentyl)carbamate]: the IC50 in assay [1] was over 1000 nM; in assay [2], at most 10 nM; in assay [3] it was at most 10 nM; in assay [4] it was over 1000 nM.
For `COC(=O)N[C@@H]1CC[C@@H](n2c(=O)n(C)c3cnc(Nc4ccnc(N5CCC(C(F)(F)F)CC5)n4)cc32)C1` [Example 79, Methyl ((1R,3R)-3-(3-methyl-2-oxo-6-((2-(4-(trifluoromethyl)piperidin-1-yl)pyrimidin-4-yl)amino)-2,3-dihydro-1H-imidazo[4,5-c]pyridin-1-yl)cyclopentyl)carbamate], the IC50 was over 1000 nM in assay [1], at most 10 nM in assay [2], at most 10 nM in assay [3] and over 1000 nM in assay [4].
In the case of `[2H]C([2H])([2H])n1c(=O)n([C@@H]2CC[C@@H](NC(=O)OC)C2)c2cc(Nc3cc(C(=O)N4CC[C@@H](F)C4)cc(-c4ccc5c(c4)OCCO5)n3)ncc21` [Example 80, Methyl ((1R,3R)-3-(6-((6-(2,3-dihydrobenzo[b][1,4]dioxin-6-yl)-4-((R)-3-fluoropyrrolidine-1-carbonyl)pyridin-2-yl)amino)-3-(methyl-d3)-2-oxo-2,3-dihydro-1H-imidazo[4,5-c]pyridin-1-yl)cyclopentyl)carbamate], the IC50 is over 1000 nM in assay [1], at most 10 nM in assay [2], at most 10 nM in assay [3] and over 1000 nM in assay [4].
For `COC(=O)N[C@@H]1CC[C@@H](n2c(=O)n(C)c3cnc(Nc4ccn(-c5ccncc5)n4)cc32)C1` [Example 81, Methyl ((1R,3R)-3-(3-methyl-2-oxo-6-((1-(pyridin-4-yl)-1H-pyrazol-3-yl)amino)-2,3-dihydro-1H-imidazo[4,5-c]pyridin-1-yl)cyclopentyl)carbamate], the IC50 in assay [1] was over 1000 nM; in assay [2], 100 to 500 nM; in assay [3], 100 to 500 nM; in assay [4], over 1000 nM.
With `[2H]C([2H])([2H])n1c(=O)n([C@@H]2CC[C@@H](NC(=O)OC)C2)c2cc(Nc3cc(C(=O)N4CCOCC4)cc(-c4ccc5c(c4)OCCO5)n3)ncc21` [Example 82, Methyl ((1R,3R)-3-(6-((6-(2,3-dihydrobenzo[b][1,4]dioxin-6-yl)-4-(morpholine-4-carbonyl)pyridin-2-yl)amino)-3-(methyl-d3)-2-oxo-2,3-dihydro-1H-imidazo[4,5-c]pyridin-1-yl)cyclopentyl)carbamate], the IC50 in assay [1] is over 1000 nM; in assay [2], at most 10 nM; in assay [3], at most 10 nM; in assay [4] it was over 1000 nM.
`COC(=O)N[C@@H]1CC[C@@H](n2c(=O)n(C)c3cnc(Nc4ccnc(NC5CCC(F)(F)C5)n4)cc32)C1` (stereo partly drawn) [Example 83, Methyl ((1R,3R)-3-(6-((2-((3,3-difluorocyclopentyl)amino)pyrimidin-4-yl)amino)-3-methyl-2-oxo-2,3-dihydro-1H-imidazo[4,5-c]pyridin-1-yl)cyclopentyl)carbamate]: the IC50 in assay [1] is over 1000 nM; in assay [2], 10 to 100 nM; in assay [3] it was at most 10 nM; in assay [4], over 1000 nM.
